The values that follow come from patent publication KR20130112248A, “피라졸로피리미딘 유도체 화합물, 이를 포함하는 산화질소 생성 억제용 조성물 및 뇌신경 질환 예방 및 치료용 약학적 조성물” (한국과학기술연구원, priority 2012, dated 2013).

The assay has as its system NO production in BV-2 cells [NO 생성; BV-2 세포]. Kind of assay: Nitric oxide (NO) quantification (nitrite, Griess reaction) in LPS-activated BV-2 cells. It is filed as cell-based. Conditions: 20 μM, LPS 0.2 ㎍/mL, 24 h co-treatment, nitrite by Griess at 540 nm; for activity at 20 µM: Mus musculus, BV-2, 24 h.

Regarding `CSc1nc(Cl)c2c(-c3ccccc3)nn(Cc3ccccc3)c2n1` [화합물 30b, 1-벤질-3-페닐-4-클로로-6-(메틸티오)피라졸로[3,4-d]피리미딘], the activity at 20 µM was 31 ± 19%.

Turning to `CSc1nc(Cl)c2c(-c3ccccc3)nn(C(C)(C)C)c2n1` [화합물 30c, 1-t-뷰틸-3-페닐-4-클로로-6-(메틸티오)피라졸로[3,4-d]피리미딘], the activity at 20 µM came to 21 ± 22%.

Consider `CSc1nc(NCc2ccccc2)c2c(-c3ccccc3)nn(-c3ccccc3)c2n1` [화합물 31a, 1-페닐-3-페닐-4-벤질아미노-6-(메틸티오)피라졸로[3,4-d]피리미딘], for which the activity at 20 µM came to 68 ± 28%.

For `CSc1nc(NCc2ccc(F)cc2)c2c(-c3ccccc3)nn(-c3ccccc3)c2n1` [화합물 31c, 1-페닐-3-페닐-4-(4-플루오로벤질)아미노-6-(메틸티오)피라졸로[3,4-d]피리미딘], the activity at 20 µM came out at 100 ± 4%.

`CSc1nc(NCCc2ccccc2)c2c(-c3ccccc3)nn(-c3ccccc3)c2n1` [화합물 31e, 1-페닐-3-페닐-4-(2-페닐에틸)아미노-6-(메틸티오)피라졸로[3,4-d]피리미딘]: the activity at 20 µM stood at 105 ± 10%.

As for `CSc1nc(NCc2ccccn2)c2c(-c3ccccc3)nn(-c3ccccc3)c2n1` [화합물 31f, 1-페닐-3-페닐-4-(피리딘-2-일)메틸아미노-6-(메틸티오)피라졸로[3,4-d]피리미딘], the activity at 20 µM is 100 ± 5%.

`C=CCNc1nc(SC)nc2c1c(-c1ccccc1)nn2-c1ccccc1` [화합물 31g, 1-페닐-3-페닐-4-알릴아미노-6-(메틸티오)피라졸로[3,4-d]피리미딘]: the activity at 20 µM was 71 ± 3%.

“N-(2-메톡시벤질)-6-(메틸설파이닐)-1-페닐-1H-피라졸로[3,4-d]피리미딘-4-아민 [화합물 22c]”: the “NO (% of LPS)” value is 55±4 % of LPS.

Consider “N-(2-메톡시벤질)-6-(메틸설포닐)-1-페닐-1H-피라졸로[3,4-d]피리미딘-4-아민 [화합물 23d]”, for which the “NO (% of LPS)” value is 35±7.4 % of LPS.

Take “N-(2-클로로벤질)-6-(메틸설파이닐)-1-페닐-1H-피라졸로[3,4-d]피리미딘-4-아민 [화합물 22f]”: the “NO (% of LPS)” value is listed as 58±3.7 % of LPS.

For the compound “N-벤질-1-메틸-6-(메틸티오)피라졸로[3,4-d]피리미딘-4-아민 [화합물 12n]”, the “NO (% of LPS)” value is 51±1 % of LPS.
